Measured values reported in patent US12459951B2, “Compounds that interact with RAS superfamily proteins for treatment of cancers, inflammatory diseases, rasopathies, and fibrotic disease” (SHY Therapeutics, LLC, priority 2022, dated 2025).

Tests used:
Rheb = biological target: T1, Rheb (Homo sapiens, UniProt Q15382); assay: Rheb GTP Binding Domain Inhibition Assay; conditions: read-out: Rheb: % inh.
T1 construct: made in house
Summary of the method: (§1)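 His-tagged cdc42 or Rheb (10–30 μg/mL) bound to nickel plates, then exposed to compound (20 μM, or serial dilutions for IC50) in 1% DMSO for 3 h at room temperature, ±Sos during final hour. Cy3- or Cy5-GTP (100 nM) added for 45 min; bound labelled GTP read by fluorescence after washes.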

MAPK p38 phosphorylation = assay: MAPK p38 Activation Assay (western blot), Panc-1; type: cell-based, human; conditions: at 10 μM, Panc-1 pancreatic cancer cell line; starred symbols = activation
Summary of the method: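 Panc-1 cells (KRas G12D) were treated with compound for 6 h at 37 °C, at 10 μM or as serial dilutions for IC50, with 0.3% DMSO. Method 1 used overnight serum-starved cells (0.5% FBS) stimulated with 1.5 ng/ml EGF for 15 min; Method 2 used unstimulated cells in 10% FBS. Phospho-p38 (Thr180/Tyr182) was detected by western blot.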

cdc42 = biological target: T2, cdc42 (Homo sapiens, UniProt P60953); assay: Cdc42 GTP Binding Domain Inhibition Assay; conditions: read-out: Cdc42: % inh.
T2 construct: made in house
Summary of the method: as §1

[1] = Kinetic Solubility Assay in pH 7.4 Buffer + 2% DMSO; type: physicochemical; conditions: phosphate-buffered saline pH 7.4 with 2% DMSO, aqueous buffer, kinetic from dmso stock, 25° C., two hours
Summary of the method: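 Compound from 20 mM DMSO stock diluted to nominal 400 μM in PBS pH 7.4 with 2% DMSO, in duplicate, shaken 2 h at 25° C., then filtered. Filtrate quantified by UV absorbance (230-550 nm) against 10-200 μM calibration curves; effective range ~2-400 μM.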

T1 sequence (Q15382 whole entry, the tested form may be a part): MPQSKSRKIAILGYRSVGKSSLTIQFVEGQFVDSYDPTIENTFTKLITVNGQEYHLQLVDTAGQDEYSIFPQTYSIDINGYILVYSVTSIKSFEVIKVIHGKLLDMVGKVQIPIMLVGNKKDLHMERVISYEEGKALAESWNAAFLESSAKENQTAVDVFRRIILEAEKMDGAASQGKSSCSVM
T2 sequence (P60953 whole entry, the tested form may be a part): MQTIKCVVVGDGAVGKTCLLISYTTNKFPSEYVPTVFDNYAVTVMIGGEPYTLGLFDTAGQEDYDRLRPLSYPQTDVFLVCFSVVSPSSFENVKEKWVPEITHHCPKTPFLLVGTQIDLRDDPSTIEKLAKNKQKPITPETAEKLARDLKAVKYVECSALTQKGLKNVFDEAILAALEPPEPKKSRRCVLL

COc1ccnc(Nc2nc(-c3nccn3C)nn3cc(-c4ccn(C(C)C)n4)c(C)c23)n1 [Compound 53, 6-(1-Isopropyl-1H-pyrazol-3-yl)-N-(4-methoxypyrimidin-2-yl)-5-methyl-2-(1-methyl-1H-imidazol-2-yl)pyrrolo[2,1-f][1,2,4]triazin-4-amine]
inhibition at 20 µM (Rheb): 76 to 100%
% inh of MAPK p38 in Panc-1 (MAPK p38 phosphorylation): H* (H* ≥ 100% activation)
inhibition at 20 µM (cdc42): 50 to 75%
solubility at 2 h [1]: 10 to 30 µM

CCOc1cc(Nc2nc(-c3nccn3C)nn3cc(-c4ccn(C)n4)c(C)c23)n[nH]1 [Compound 260, N-(5-Ethoxy-1H-pyrazol-3-yl)-5-methyl-2-(1-methyl-1H-imidazol-2-yl)-6-(1-methyl-1H-pyrazol-3-yl)pyrrolo[2,1-f][1,2,4]triazin-4-amine]
solubility at 2 h [1]: < 10 µM

Cc1c(-c2ccn(C(C)C)n2)cn2nc(-c3nccn3C)nc(Nc3ccncn3)c12 [Compound 55, 6-(1-Isopropyl-1H-pyrazol-3-yl)-5-methyl-2-(1-methyl-1H-imidazol-2-yl)-N-(pyrimidin-4-yl)pyrrolo[2,1-f][1,2,4]triazin-4-amine]
inhibition at 20 µM (Rheb): 76 to 100%
% inh of MAPK p38 in Panc-1 (MAPK p38 phosphorylation): H* (H* ≥ 100% activation)
inhibition at 20 µM (cdc42): 50 to 75%
solubility at 2 h [1]: 10 to 30 µM

Cc1c(-c2ccn(C(C)C)n2)cn2nc(-c3nccn3C)nc(Nc3nnco3)c12 [Compound 59, N-(6-(1-Isopropyl-1H-pyrazol-3-yl)-5-methyl-2-(1-methyl-1H-imidazol-2-yl)pyrrolo[2,1-f][1,2,4]triazin-4-yl)-1,3,4-oxadiazol-2-amine]
inhibition at 20 µM (Rheb): 50 to 75%
% inh of MAPK p38 in Panc-1 (MAPK p38 phosphorylation): H* (H* ≥ 100% activation)
inhibition at 20 µM (cdc42): 50 to 75%
solubility at 2 h [1]: < 10 µM

Cc1cc(Nc2nc(-c3nccn3C)nn3cc(-c4ccn(C)n4)c(C)c23)n[nH]1 [Compound 255, 5-Methyl-2-(1-methyl-1H-imidazol-2-yl)-6-(1-methyl-1H-pyrazol-3-yl)-N-(5-methyl-1H-pyrazol-3-yl)pyrrolo[2,1-f][1,2,4]triazin-4-amine]
solubility at 2 h [1]: > 30 µM

COc1cc(-c2cn3nc(-c4nccn4C)nc(Nc4cc(OC)ncn4)c3c2C)ccn1 [Compound 50, 6-(2-Methoxypyridin-4-yl)-N-(6-methoxypyrimidin-4-yl)-5-methyl-2-(1-methyl-1H-imidazol-2-yl)pyrrolo[2,1-f][1,2,4]triazin-4-amine]
inhibition at 20 µM (Rheb): 26 to 49%
inhibition at 20 µM (cdc42): 26 to 49%
solubility at 2 h [1]: < 10 µM

Cc1c(-c2ccn(C)n2)cn2nc(-c3nccn3C)nc(Nc3cc(-c4cccnc4)ccn3)c12 [Compound 250, N-([3,4′-Bipyridin]-2′-yl)-5-methyl-2-(1-methyl-1H-imidazol-2-yl)-6-(1-methyl-1H-pyrazol-3-yl)pyrrolo[2,1-f][1,2,4]triazin-4-amine]
solubility at 2 h [1]: < 10 µM

Cc1[nH]nc(Nc2nc(-c3nccn3C)nn3cc(-c4ccn(C)n4)c(C)c23)c1C [Compound 267, N-(4,5-Dimethyl-1H-pyrazol-3-yl)-5-methyl-2-(1-methyl-1H-imidazol-2-yl)-6-(1-methyl-1H-pyrazol-3-yl)pyrrolo[2,1-f][1,2,4]triazin-4-amine]
solubility at 2 h [1]: 10 to 30 µM

Cc1c(-c2ccn(C)n2)cn2nc(-c3nccn3C)nc(Nc3cc(C(C)C)[nH]n3)c12 [Compound 268, N-(5-Isopropyl-1H-pyrazol-3-yl)-5-methyl-2-(1-methyl-1H-imidazol-2-yl)-6-(1-methyl-1H-pyrazol-3-yl)pyrrolo[2,1-f][1,2,4]triazin-4-amine]
solubility at 2 h [1]: < 10 µM

COc1cc(Nc2nc(-c3nccn3C)nn3cc(-c4ccn(C)n4)c(C)c23)n[nH]1 [Compound 252, N-(5-Methoxy-1H-pyrazol-3-yl)-5-methyl-2-(1-methyl-1H-imidazol-2-yl)-6-(1-methyl-1H-pyrazol-3-yl)pyrrolo[2,1-f][1,2,4]triazin-4-amine]
solubility at 2 h [1]: < 10 µM
